Source: paper PMC12067741, “Inhibition of SOD1 trimerization is a novel drug target for ALS disease” (Translational Neurodegeneration, 2025)
“Also recorded” adds a separate entry of the source.

What was measured:
[1] = test system: MT-SOD1 protein uptake; assay: SOD1 recombinant protein uptake into neuronal cells; type: cell-based
Protocol: For monitoring the localization of SOD1 recombinant proteins, SOD1-Halo proteins were added in neuronal cultures for 2 h and then the cells were incubated with the cell-permeable HaloTag-fluorscent ligands (diAcFAM) for 30 min. After incubation, cells were washed with serum-free culture medium three times and incubated in serum-containing culture medium in a CO2 incubator for 30 min to wash out unbound ligand. Fluorescent images of live cells were obtained using a commercial Tomocube HT-2H holotomography system (Daejeon, Republic of Korea).
We hypothesized that PRG-A-04, which targets trimeric SOD1, would inhibit SOD1 protein uptake. MT-SOD1 proteins were incubated with PRG-A-04 in vitro, and then cells were treated with the mixture. The MT-SOD1 protein uptake was reduced by incubation with PRG-A-04, as was SOD1 oligomerization (Fig. 3f, g). […] However, whether neuron-specific receptors on synapses, physiological conditions (neuronal cellular stress such as ion deficiency, environmental conditions such as hypoxia) and other ALS-related genetic causes (TDP-43, FUS, etc.) are essential for SOD1 uptake requires further study.
Fig. S3 SOD1 protein uptake into the cells through endocytosis. a, The uptake of SOD1 proteins was achieved by endocytosis. SH-SY5Y cells were treated with SOD1 recombinant proteins and endocytosis inhibitor (Dynasore; […]) for 6hr. After incubations, cells were harvested with RIPA and separated by SDS-PAGE. S.E: short exposure, L.E: long exposure. b, The recombinant MT-SOD1 protein is located intracellular space in neuron cells. SOD1-Halo proteins (3 μg/ml) were treated in neuron cells for 2 hr and incubated with HaloTag-fluorscent ligands (cellpermeable ligands; diAcFAM) for 30 min. After incubation, cells were washed with fresh culture medium three times and.
Incubate cells in complete culture medium at CO2 incubator for 30 min to wash unbound ligand. The fluorescence images of live cells were obtained using a commercial holotomography (HT-2H). White arrows indicate the intensity of SOD1. BF; Bright field, Scale bar; […].

[2] = mouse, in vivo, iv, 1 mg/kg
[3] = test system: MT-SOD1 recombinant protein; assay: In vitro oligomerization of recombinant GST-SOD1 (non-denaturing); type: biochemical; settings: GST-SOD1 4 μg/mL, PRG-A-04 10 μmol/L, 30 min, room temperature
Protocol: For detecting the oligomerization assay promoted by mutant-type (MT)-SOD1 recombinant proteins in vitro, GST-SOD1 recombinant protein (4 μg/mL) was incubated with PRG-A-04 (10 μmol/L) for 30 min at room temperature in PBS and the samples were mixed with non-denaturing sample buffer. Those were separated in SDS-PAGE gel without boiling.

[4] = Metabolic stability in liver microsomes; type: in vitro ADME; settings: beagle dog liver microsomes
[5] = test system: WT-SOD1 (Azurite, mCherry2) and MT (G93A)-SOD1 (GFP); assay: Co-inclusion of three colour variants of SOD1 in SK-N-SH cells; type: cell-based; settings: PRG-A-04 5 μmol/L, 24 h
Protocol: Cells with SOD1 aggregation were counted in the fluorescent images. Depending on the intensity of SOD1, cells with SOD1 aggregates were counted in randomly selected fields and quantified as a percentage to the total cells counted. In addition, to calculate the colocalization of the three colors of SOD1, we counted the cells where the three colored images overlapped at a point of high intensity. Cell counting was performed by three independent observers, who were blinded to the transfection or chemical treatment group.
Fig. 2 PRG-A-04 suppresses SOD1 aggregation through targeting trimeric SOD1. a-b SOD1 trimer destabilizer inhibited MT-SOD1 aggregation. (a) SOD1 (GFP) expression was observed under fluorescence microscope (white arrows; strong intensity of SOD1). Scale bar, 10 μm. EV, empty vector. (b) SOD1 inclusion-positive cells (white arrows; strong intensity of SOD1) were counted and the percentages are shown as mean ± SD. c PRG-A-04 reduced SOD1 oligomerization induced by SOD1 trimer stabilizer (G147P). d-g PRG-A-04 directly bound to the mutant form of SOD1. […] (g) For quantitative analysis, the number of PRG-A-04 molecules per 100 SOD1 molecules was counted. […] (i) Cells with WT and MT-SOD1 co-inclusions were counted and the percentages are shown as mean ± SD. For cell counting, five fluorescence images were randomly selected. […]

Question: With `COc1cc(C=CCOC2Cc3cc4ccc(=O)oc4cc3OC2(C)C)ccc1[N+](=O)[O-]` (stereo not drawn) [PRG-A-04] as the compound, how does the “effect on MT-SOD1 protein uptake” value ([1]; MT-SOD1 protein pre-incubated with PRG-A-04 in vitro, then added to neuronal cells) read?
Answer: Its value is “selectively inhibited MT-SOD1 uptake; also recorded: reduced”.

Question: And the “effect on SOD1 oligomerization induced by SOD1 protein uptake” value ([1]; neuronal cells)?
Answer: The value was “reduced SOD1 oligomerization induced by SOD1 protein uptake”.

Question: And the AUC0-inf [2]?
Answer: Its AUC0-inf is 1857.00 ng·h/mL.

Question: And the AUC0-last [2]?
Answer: Its AUC0-last is 1826.50 ng·h/mL.

Question: And the “C0 (or) Cmax” value [2]?
Answer: Its value is 1272.33 ng/mL.

Question: And the T1/2 [2]?
Answer: The T1/2 was 4.12 h.

Question: And the “effect on oligomerization of recombinant MT-SOD1 in vitro” value [3]?
Answer: Its value is “inhibited the oligomerizing or aggregation property of MT-SOD1”.

Question: What about the “extent of metabolism in liver microsomes” value [4] of the same compound?
Answer: Its value is “moderately metabolized; also recorded: metabolized significantly”.

Question: And the “co-inclusion of WT and MT-SOD1” value [5]?
Answer: The value was “disappeared”.
